Source: ChEMBL document CHEMBL1201862, “PubChem BioAssay data set” (2004)
Activity calls are given as the source filed them.

Experiments:
[1] = target: T1, Rac GTPase-activating protein 1 (Homo sapiens, UniProt Q9H0H5); assay: blockers of MgcRacGAP-driven Rac1 GTP hydrolysis – biochemical, ADP Hunter fluorescence, primary and confirmatory, confirmation (AID 624330); type: functional
T1 sequence (Q9H0H5 whole entry): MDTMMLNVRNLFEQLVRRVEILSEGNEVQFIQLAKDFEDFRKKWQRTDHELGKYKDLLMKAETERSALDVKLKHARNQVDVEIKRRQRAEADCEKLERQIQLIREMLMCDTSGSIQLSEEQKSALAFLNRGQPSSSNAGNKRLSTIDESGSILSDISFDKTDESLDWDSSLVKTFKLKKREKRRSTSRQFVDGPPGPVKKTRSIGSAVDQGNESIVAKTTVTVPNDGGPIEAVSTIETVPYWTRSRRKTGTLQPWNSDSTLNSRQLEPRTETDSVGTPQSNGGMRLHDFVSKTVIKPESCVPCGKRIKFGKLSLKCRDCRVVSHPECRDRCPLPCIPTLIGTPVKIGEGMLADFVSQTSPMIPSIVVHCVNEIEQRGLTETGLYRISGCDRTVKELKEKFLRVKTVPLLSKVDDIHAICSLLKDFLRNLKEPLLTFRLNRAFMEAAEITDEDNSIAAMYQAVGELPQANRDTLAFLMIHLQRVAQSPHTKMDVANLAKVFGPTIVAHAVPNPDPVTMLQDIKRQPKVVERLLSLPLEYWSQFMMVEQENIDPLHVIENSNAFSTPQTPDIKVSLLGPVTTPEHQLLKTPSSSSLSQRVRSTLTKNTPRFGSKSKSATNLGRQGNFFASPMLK

[2] = Luminescence Cell-Based Dose Retest to Confirm Inhibitors of Cancer Stem Cells. [Related pubchem assays (depositor defined):AID2717, AID2721]; type: functional; settings: Homo sapiens
[3] = target: T2, Polyadenylate-binding protein 1 (Homo sapiens, UniProt P11940); assay: MLLE binding blockers, Cy5 peptide tracer – biochemical, fluorescence polarization, Cy5-PAM2 peptide, secondary, miRNA deadenylation inhibitor project, dose response (AID 602260); type: functional; settings: read-out: IC50_Mean
T2 sequence (P11940 whole entry, the tested form may be a part): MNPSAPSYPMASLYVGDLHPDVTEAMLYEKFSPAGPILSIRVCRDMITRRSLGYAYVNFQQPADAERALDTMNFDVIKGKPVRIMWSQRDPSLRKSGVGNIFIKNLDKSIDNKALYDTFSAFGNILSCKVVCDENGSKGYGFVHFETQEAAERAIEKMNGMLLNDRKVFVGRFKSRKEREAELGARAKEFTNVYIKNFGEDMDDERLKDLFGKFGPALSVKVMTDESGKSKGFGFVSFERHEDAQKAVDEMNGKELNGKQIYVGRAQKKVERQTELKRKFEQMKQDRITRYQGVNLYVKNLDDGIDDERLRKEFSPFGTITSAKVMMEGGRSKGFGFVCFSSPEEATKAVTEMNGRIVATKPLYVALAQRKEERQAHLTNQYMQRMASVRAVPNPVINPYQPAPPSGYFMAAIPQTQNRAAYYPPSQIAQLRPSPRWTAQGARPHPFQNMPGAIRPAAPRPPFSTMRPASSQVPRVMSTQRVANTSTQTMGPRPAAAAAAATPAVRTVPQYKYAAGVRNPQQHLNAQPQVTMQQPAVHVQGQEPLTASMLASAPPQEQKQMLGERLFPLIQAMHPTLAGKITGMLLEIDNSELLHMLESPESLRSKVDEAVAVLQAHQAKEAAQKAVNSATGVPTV

[4] = target: T2, Polyadenylate-binding protein 1; assay: MLLE domain peptide-binding blockers, IC50 – biochemical, fluorescence polarization, FITC-PAM2 peptide, dose response (AID 602259); type: functional; settings: read-out: IC50_Mean
[5] = system: Streptococcus sp. 'group A'; assay: Streptococcus pyogenes SK(-)GAS viability under kanamycin – luminescence, BacTiterGlo, confirmation, counter-screen for streptokinase expression inhibitor project, dose response (AID 1900); type: functional, organism-based
[6] = system: Streptococcus; assay: GAS UMAA2166 growth inhibition – luminescence, BacTiterGlo, counter-screen for streptokinase expression inhibitor project, dose response (AID 1915); type: functional, organism-based;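 also: potency for reduction of bacterial viability or growth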
[7] = target: T3, Heat shock factor protein 1 (Mus musculus, UniProt P38532); assay: decrease of HSF1-responsive luciferase luminescence – cell-based, NIH3T3, dose retest, confirmation (AID 2382); type: functional;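 also: NIH3T3 fibroblasts with HSF1-driven luciferase reporter stressed by proteasome inhibitor MG132; luminescence from HSF1-driven luciferase expression after 8 hours of MG132 stress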
T3 sequence (P38532 whole entry): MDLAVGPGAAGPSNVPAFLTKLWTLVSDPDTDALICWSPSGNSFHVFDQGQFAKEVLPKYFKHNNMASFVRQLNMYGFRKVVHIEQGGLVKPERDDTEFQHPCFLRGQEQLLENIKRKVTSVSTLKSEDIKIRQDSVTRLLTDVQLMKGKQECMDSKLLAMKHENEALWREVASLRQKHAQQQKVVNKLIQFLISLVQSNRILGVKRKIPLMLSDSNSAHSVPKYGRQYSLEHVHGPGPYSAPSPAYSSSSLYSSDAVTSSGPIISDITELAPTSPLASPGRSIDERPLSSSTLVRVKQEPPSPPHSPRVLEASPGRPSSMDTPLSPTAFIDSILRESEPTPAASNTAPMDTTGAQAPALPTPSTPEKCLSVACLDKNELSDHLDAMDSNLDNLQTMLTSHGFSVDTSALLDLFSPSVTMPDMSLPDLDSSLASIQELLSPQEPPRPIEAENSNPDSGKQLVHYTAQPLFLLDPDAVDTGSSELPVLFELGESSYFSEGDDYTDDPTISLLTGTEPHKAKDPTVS

[8] = target: T4, Replicative DNA helicase DnaB (Mycobacterium tuberculosis, UniProt P9WMR3); assay: DnaB intein splicing inhibitors, dose response, biochemical, cell-free fluorescence (AID 449749); type: functional
T4 sequence (P9WMR3 whole entry): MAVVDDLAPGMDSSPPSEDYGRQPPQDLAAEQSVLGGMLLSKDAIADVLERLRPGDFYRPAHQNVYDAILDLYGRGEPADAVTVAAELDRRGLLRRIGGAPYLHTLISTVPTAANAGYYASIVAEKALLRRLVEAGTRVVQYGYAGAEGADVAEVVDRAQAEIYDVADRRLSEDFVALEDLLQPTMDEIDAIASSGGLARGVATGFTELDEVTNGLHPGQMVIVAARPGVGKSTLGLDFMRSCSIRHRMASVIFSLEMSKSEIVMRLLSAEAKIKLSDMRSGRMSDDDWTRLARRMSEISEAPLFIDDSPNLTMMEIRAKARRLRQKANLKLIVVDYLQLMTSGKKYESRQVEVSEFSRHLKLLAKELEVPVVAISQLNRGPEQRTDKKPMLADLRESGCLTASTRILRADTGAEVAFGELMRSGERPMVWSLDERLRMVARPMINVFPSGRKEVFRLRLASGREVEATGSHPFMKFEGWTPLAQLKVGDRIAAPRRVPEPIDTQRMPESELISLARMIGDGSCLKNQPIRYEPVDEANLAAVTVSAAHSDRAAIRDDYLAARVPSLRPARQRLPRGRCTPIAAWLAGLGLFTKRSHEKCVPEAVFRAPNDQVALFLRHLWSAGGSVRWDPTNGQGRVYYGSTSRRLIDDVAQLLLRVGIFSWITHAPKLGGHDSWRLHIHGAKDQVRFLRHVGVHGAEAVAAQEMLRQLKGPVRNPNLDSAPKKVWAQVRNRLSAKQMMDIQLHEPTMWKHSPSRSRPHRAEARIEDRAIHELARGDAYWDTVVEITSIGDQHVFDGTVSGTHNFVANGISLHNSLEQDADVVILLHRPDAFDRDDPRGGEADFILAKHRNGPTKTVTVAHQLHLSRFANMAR

[9] = target: T5, Protein RecA (Mycobacterium tuberculosis, UniProt P9WHJ3); assay: Fluorescence Cell-Free Homogeneous Dose Retest to Identify Inhibitors of RecA-Intein Splicing Activity. [Related pubchem assays (depositor defined):AID2097, AID2223, AID489010, AID492950]; type: functional
T5 sequence (P9WHJ3 whole entry): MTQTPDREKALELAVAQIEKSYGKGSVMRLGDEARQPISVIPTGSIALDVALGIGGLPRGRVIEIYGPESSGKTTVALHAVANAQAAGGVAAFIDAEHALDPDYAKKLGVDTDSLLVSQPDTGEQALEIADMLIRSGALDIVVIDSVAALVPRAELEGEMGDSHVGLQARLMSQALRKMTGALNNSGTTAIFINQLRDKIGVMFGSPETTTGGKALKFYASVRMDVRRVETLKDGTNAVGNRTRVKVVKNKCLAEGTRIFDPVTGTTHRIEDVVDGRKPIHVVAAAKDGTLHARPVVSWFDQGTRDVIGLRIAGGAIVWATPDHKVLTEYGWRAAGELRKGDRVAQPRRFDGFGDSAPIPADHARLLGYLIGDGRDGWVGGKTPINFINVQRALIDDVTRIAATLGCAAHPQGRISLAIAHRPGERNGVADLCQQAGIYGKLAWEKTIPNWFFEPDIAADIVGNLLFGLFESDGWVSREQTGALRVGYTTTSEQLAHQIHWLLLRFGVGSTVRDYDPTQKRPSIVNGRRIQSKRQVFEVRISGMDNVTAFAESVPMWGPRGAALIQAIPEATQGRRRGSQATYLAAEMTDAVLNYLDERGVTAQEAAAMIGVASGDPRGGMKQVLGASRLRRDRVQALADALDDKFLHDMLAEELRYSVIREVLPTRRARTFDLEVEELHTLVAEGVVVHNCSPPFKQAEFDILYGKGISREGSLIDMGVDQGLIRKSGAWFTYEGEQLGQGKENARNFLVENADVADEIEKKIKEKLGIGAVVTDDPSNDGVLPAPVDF

[10] = viability of HCT116 lacking mutant beta-catenin – cell-based, human colon tumor, dose response (AID 1045); type: functional;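 also: HCT116 colon tumor cells with beta catenin knocked out; cells exposed to compound for 60 hours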
[11] = viability of PTEN-deleted HCT116 cells – cell-based, HCT116 PTEN knockout, dose response (AID 1047); type: functional;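 also: HCT116 colon tumor cells with PTEN knocked out; cells exposed to compound for 60 hours before readout; potency for loss of cell viability measured by luminescence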

COc1ccc(-c2c[nH]nc2-c2ccc(O)cc2O)cc1OC
IC50 [1]: 60.2 µM (active)

COc1cc(/C=C/C(=O)OCC(=O)N2CCN(C(=O)c3ccco3)CC2)ccc1O
IC50 [1]: 44.8 µM (active)

C#CCOCCOCCOCCNc1nc(N2CCN(C(=O)CCCCCCCCCCNC(=O)Cn3cc(C[C@@H](C)O)nn3)CC2)nc(N2CCN(C(=O)CCCCCCCCCCNC(=O)[C@@H]([C@H](C)O)n3cc(C)nn3)CC2)n1
AC50 [2]: 4.67 µM (active)

COc1ccc(C(=O)NC(=S)NC2CCSC2=O)cc1 (centres undefined)
IC50 [3]: > 66 µM (inactive)
IC50 [4]: > 66 µM (inactive)

Cc1nc(NS(=O)(=O)c2ccccc2)sc1NC(=O)OC(C)C
IC50 [3]: > 66 µM (inactive)
IC50 [4]: > 66 µM (inactive)

Cc1ccc(Nc2cc(C)c3ccc(O)cc3n2)cc1C
AC50 [2]: 4.45 µM (active)

O=[N+]([O-])c1ccc(COc2ccc(-c3[nH]ncc3-c3ccccc3)c(O)c2)cc1
AC50 [2]: 4.73 µM (active)

Cn1c(=O)c2c(O)cc(N)nc2n(C)c1=O
IC50 [3]: > 66 µM (inactive)
IC50 [4]: 56.2 µM (inactive)

C=C(C)COc1ccc(-c2[nH]nc(C)c2-c2ccc(Br)cc2)c(O)c1
EC50 [5]: 2.99 µM (active)
AC50 [2]: 0.692 µM (active)
EC50 [6]: 4.72 µM (active)

Cc1[nH]n(-c2ccc([N+](=O)[O-])cc2)c(=O)c1/C=N/CCN1CCN(C(=O)C(C)C)CC1
AC50 [2]: 4.61 µM (active)
EC50 [7]: > 195 µM (not active)

CCCn1c(=C(C#N)C#N)s/c(=C2\C=Cc3ccccc3N2CC)c1=O
IC50 [3]: > 66 µM (inactive)
IC50 [4]: > 66 µM (inactive)

COc1ccc(OCCCC(=O)OCC(=O)Nc2ncc(Cl)cc2Cl)cc1
IC50 [3]: > 66 µM (inactive)
IC50 [4]: 30.3 µM (inactive)

COc1cc(C2C(C#N)=C(N)Oc3c2c(-c2ccccc2)nn3-c2ccccc2)cc(OC)c1OC (centres undefined)
AC50 [8]: 26.8 µM (active)
EC50 [9]: 27.9 µM (active)

CCCCOc1ccc(C(=O)Nc2ccc3c(c2)OCO3)cc1
AC50 [2]: 1.46 µM (active)

CCCCC1OC23CCCCC2C(C#N)(C(=N)O3)C1(C#N)C#N (centres undefined)
IC50 [3]: > 66 µM (inactive)
IC50 [4]: > 66 µM (inactive)

COCCNC(=S)Nc1cc(OC)c(OC)cc1C#N
IC50 [1]: 204 µM (active)

Cc1ccc(CN2CCSc3ccc(C(=O)NCc4ccco4)cc32)cc1
AC50 [2]: 12.1 µM (active)

CC1(C)CC2=C(CO1)C(S)=NC(c1ccccc1)N2CC1CCCO1 (centres undefined)
IC50 [3]: > 66 µM (inactive)
IC50 [4]: > 66 µM (inactive)

COc1ccc(C2c3c(ncn(Cc4ccco4)c3=N)Oc3ccc4ccccc4c32)cc1 (centres undefined)
EC50 [10]: 8.89 µM (active)
AC50 [2]: 4.48 µM (active)
EC50 [11]: 9.97 µM (active)

COCc1n[nH]c2c1C1(CCSCC1)C(C#N)=C(N)O2
AC50 [8]: 18.5 µM (active)
EC50 [9]: 2.26 µM (active)
EC50 [7]: > 195 µM (not active)

Cn1c(=O)c(C(=O)NNC(=O)c2ccc(Br)cc2)c(O)c2ccccc21
AC50 [2]: 3.03 µM (active)

COCCOC(=O)C1=C(C)N=C2SCCC(=O)N2C1c1ccc(OC(=O)c2ccco2)cc1 (centres undefined)
AC50 [8]: 19.8 µM (active)
EC50 [9]: 14 µM (active)

COc1ccc(-c2c(=O)n(OC)c3ccccc3[n+]2[O-])cc1OC
AC50 [8]: > 380 µM (inactive)
EC50 [9]: > 380 µM (inactive)

Cc1[nH]nc2c1C1(CCC(c3ccccc3)CC1)C(C#N)=C(N)O2 (centres undefined)
AC50 [8]: 5.82 µM (active)
EC50 [9]: 1.51 µM (active)

CC(=O)Oc1ccc(C2=NN(c3ccccc3)C(c3ccccc3)C2)cc1 (centres undefined)
AC50 [2]: 2.63 µM (active)

CN(C)C(=O)/C(C#N)=C\c1cc(Br)c(Sc2ccc(Cl)cc2)o1
AC50 [2]: 4.82 µM (active)

Oc1ccc(/N=C(\S)Nc2ccc(O)cc2)cc1
IC50 [1]: 41.7 µM (active)

CC(=O)Nc1ccc(S(=O)(=O)NCC(=O)N2CCN(S(=O)(=O)c3cccs3)CC2)cc1
IC50 [3]: > 66 µM (inactive)
IC50 [4]: > 66 µM (inactive)

Cc1ccccc1CN1CCN(C(=O)c2cccc3ccccc23)CC1
IC50 [1]: 215 µM (active)

Cc1cccc(-n2ncc3c(N4CCCc5ccccc54)ncnc32)c1
AC50 [2]: 7.31 µM (active)

N#CC1=C(N)Oc2[nH]nc(-c3cccs3)c2C1c1cccs1 (centres undefined)
AC50 [8]: 2.63 µM (active)
EC50 [9]: 2.02 µM (active)

S=C(c1ccc(Cl)cc1)N1CCOCC1 [(4-CHLOROPHENYL)(MORPHOLINO)METHANETHIONE]
IC50 [3]: > 66 µM (inactive)
IC50 [4]: > 66 µM (inactive)

CC1=NN(c2ccccc2)C(=O)/C1=C\c1c[nH]nc1-c1ccccc1
AC50 [8]: 4.1 µM (active)
EC50 [9]: 2.54 µM (active)

O=C(Nc1ccc(Cl)cc1)C1c2cccc[n+]2CC(=O)N1Cc1ccc2c(c1)OCO2 (centres undefined)
AC50 [8]: > 380 µM (inactive)
EC50 [9]: 13.3 µM (active)

COc1cc(NC(S)=Nc2ccc(N(C)C(C)=O)cc2)cc(OC)c1
IC50 [3]: > 66 µM (inactive)
IC50 [4]: > 66 µM (inactive)
